In patent publication US20240308968A1, “FUNGICIDAL SUBSTITUTED HETEROCYCLES” (FMC Corporation, priority 2021, published 2024):

How the values were obtained:
Type in all cases: in vivo
[1] = system: Zymoseptoria tritici; experiment: Test A: preventive spray on wheat seedlings, wheat leaf blotch disease rating; settings: 100 = 100% disease control, 0 = no control; for pest or weed control at 50 ppm: Zymoseptoria tritici, 456 h
Procedure, shortened: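 Disease scored after 17 days in a 20 °C growth chamber, following 48 h at 24 °C in saturated air after spore inoculation with Z. tritici. Inoculation came one day after wheat seedlings were sprayed to run-off with test suspension (acetone/water 50/50, 50–250 ppm PEG400).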

[2] = system: Puccinia recondita f. sp. Tritici; experiment: Test B: preventive spray on wheat seedlings, wheat leaf rust disease rating; settings: 100 = 100% disease control, 0 = no control; for pest or weed control at 50 ppm: Puccinia recondita, 192 h
Procedure, shortened: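 Preventive test: one day after spraying wheat seedlings to run-off with ppm suspensions (acetone/water 1:1, 50-250 ppm PEG400), leaf rust spores were applied. Incubation was 24 h at saturation then 7 days at 20° C.; disease scored 0-100% control relative to untreated.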

[3] = system: Blumeria graminis f. sp. Tritici; experiment: Test C: preventive spray on wheat seedlings, wheat powdery mildew disease rating; settings: 100 = 100% disease control, 0 = no control; for pest or weed control at 50 ppm: Blumeria graminis, 192 h
Procedure, shortened: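 Disease control scored visually after 8 days at 20° C, on a 0–100 scale versus untreated controls. Seedlings had received a preventive run-off spray one day before dusting with powdery mildew spores; compounds were suspended in acetone/water (50/50) containing 50–250 ppm PEG400.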

[4] = system: Phakopsora pachyrhizi; experiment: Test D: preventive spray on soybean seedlings, Asian soybean rust disease rating; settings: 100 = 100% disease control, 0 = no control; for pest or weed control at 50 ppm: Phakopsora pachyrhizi, 216 h
Procedure, shortened: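 Seedlings of soybean were challenged with rust spores one day after a run-off spray of test suspension (acetone/water 50/50, 50–250 ppm PEG400); after 24 h saturated humidity and 8 days growth, both at 22° C, disease was scored visually.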

[5] = system: Botrytis cinerea; experiment: Test E: preventive spray on tomato seedlings, tomato Botrytis disease rating; settings: 100 = 100% disease control, 0 = no control; for pest or weed control at 50 ppm: Botrytis cinerea, 120 h
Procedure, shortened: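 Preventive test: one day after spraying seedlings to run-off with test suspension (ppm in acetone/water, 50–250 ppm PEG400), B. cinerea spores applied. Incubation 48 h at 20 °C saturated humidity plus 3 days at 24 °C preceded visual rating as percent disease control versus controls.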

[6] = system: Alternaria solani; experiment: Test F: preventive spray on tomato seedlings, tomato early blight disease rating; settings: 100 = 100% disease control, 0 = no control; for pest or weed control at 50 ppm: Alternaria solani, 120 h
Procedure, shortened: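 Preventive test: a day after run-off spraying with acetone/water–PEG400 suspensions (ppm), seedlings received an A. solani spore inoculum. Incubation was 48 h at 27 °C in saturated air followed by 3 days in a 20 °C chamber. Visual scores express percent disease control versus untreated plants (0–100).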

Row | Compound | Test A disease control rating ([1]; 50 ppm) | Test B disease control rating ([2]; 50 ppm) | Test C disease control rating ([3]; 50 ppm) | Test D disease control rating ([4]; 50 ppm) | Test E disease control rating ([5]; 50 ppm) | Test F disease control rating ([6]; 50 ppm) | also measured
1 | CCc1nc(C)nc(-c2cc(OC)cc(OC)c2Cl)c1-c1c(F)cccc1F [Compound 57, 4-(2-chloro-3,5-dimethoxyphenyl)-5-(2,6-difluorophenyl)-6-ethyl-2-methylpyrimidine] | – | – | – | – | – | – | pest or weed control at 50 ppm ([1]; 50 ppm): 100%; pest or weed control at 50 ppm ([2]; 50 ppm): 100%; pest or weed control at 50 ppm ([3]; 50 ppm): 100%; pest or weed control at 50 ppm ([4]; 50 ppm): 73%; pest or weed control at 50 ppm ([5]; 50 ppm): 96%; pest or weed control at 50 ppm ([6]; 50 ppm): 97%
2 | COc1cc(OC)cc(-c2nc(C)nc(OC)c2-c2ccc(F)cc2Cl)c1 [Compound 58] | 24% | 0% | 21% | 0% | 79% | 0% | –
3 | COc1cc(OC)c(Br)c(-c2nc(C)nc(C)c2-c2ccc(F)cc2Cl)c1 [Compound 59, 4-(2-bromo-3,5-dimethoxyphenyl)-2,6-dimethyl-5-(2-chloro-4-fluorophenyl)pyrimidine] | – | – | – | – | – | – | pest or weed control at 50 ppm ([1]; 50 ppm): 100%; pest or weed control at 50 ppm ([2]; 50 ppm): 100%; pest or weed control at 50 ppm ([3]; 50 ppm): 100%; pest or weed control at 50 ppm ([4]; 50 ppm): 100%; pest or weed control at 50 ppm ([5]; 50 ppm): 88%; pest or weed control at 50 ppm ([6]; 50 ppm): 98%
4 | COc1cc(OC)cc(-c2c(-c3c(F)cc(F)cc3F)noc(=O)c2C)c1 [Compound 60] | 82% | 99% | 96% | 75% | 87% | 62% | –
5 | COc1cc(OC)cc(-c2c(-c3ccc(F)cc3F)noc(=O)c2C)c1 [Compound 61] | 63% | 55% | 0% | 0% | 83% | 0% | –
6 | COc1cc(OC)c(Cl)c(-c2c(-c3ccc(F)cc3F)noc(=O)c2C)c1 [Compound 62] | 100% | 99% | 76% | 87% | 97% | 0% | –
7 | COc1cc(OC)c(Br)c(-c2c(-c3ccc(F)cc3F)noc(=O)c2C)c1 [Compound 63] | 100% | 100% | 56% | 0% | 97% | 0% | –
8 | COc1cc(-c2cc(C#N)c(=O)n(C)c2-c2c(F)cc(F)cc2F)cc(OC)c1Cl [Compound 71, 5-(4-chloro-3,5-dimethoxyphenyl)-1,2-dihydro-1-methyl-2-oxo-6-(2,4,6-trifluorophenyl)-3-pyridinecarbonitrile] | – | – | – | – | – | – | pest or weed control at 50 ppm ([1]; 50 ppm): 87%; pest or weed control at 50 ppm ([2]; 50 ppm): 99%; pest or weed control at 50 ppm ([3]; 50 ppm): 47%; pest or weed control at 50 ppm ([4]; 50 ppm): 92%; pest or weed control at 50 ppm ([5]; 50 ppm): 63%; pest or weed control at 50 ppm ([6]; 50 ppm): 0%
9 | CCn1c(-c2c(F)cc(F)cc2F)c(-c2cc(OC)c(Cl)c(OC)c2)cc(C#N)c1=O [Compound 72] | 93% | 98% | 21% | 77% | 90% | 0% | –
10 | CCOC(=O)c1nn(-c2cc(OC)ccc2Cl)c(-c2ccc(F)cc2F)c(C(=O)OCC)c1=O [Compound 81] | 0% | 19% | 0% | 0% | 0% | 0% | –
11 | CCOC(=O)c1nn(-c2cc(OC)ccc2Cl)c(-c2ccc(F)cc2)c(C(=O)OCC)c1=O [Compound 82] | 3% | 28% | 0% | 0% | 0% | 0% | –
12 | COc1cc(OC)c(Cl)c(-n2nc(C#N)c(=O)c(C)c2-c2ccc(F)cc2Cl)c1 [Compound 83] | 99% | 100% | 98% | 100% | 94% | 100% | –
13 | COc1cc(OC)c(Cl)c(-n2nc(C)c(=O)c(C)c2-c2ccc(F)cc2Cl)c1 [Compound 84] | 100% | 100% | 99% | 100% | 94% | 100% | –
14 | COc1cc(OC)c(Cl)c(-n2nc(CF)c(=O)c(C)c2-c2ccc(F)cc2Cl)c1 [Compound 85] | 100% | 100% | 99% | 100% | 93% | 100% | –
15 | COc1cc(OC)c(Cl)c(-n2nc(NC(=O)OC(C)(C)C)c(=O)c(C)c2-c2ccc(F)cc2Cl)c1 [Compound 86] | – | – | – | – | – | – | Test A disease control rating ([1]; 250 ppm): 83%; Test B disease control rating ([2]; 250 ppm): 98%; Test C disease control rating ([3]; 250 ppm): 0%; Test D disease control rating ([4]; 250 ppm): 0%; Test E disease control rating ([5]; 250 ppm): 43%; Test F disease control rating ([6]; 250 ppm): 0%
16 | COc1cc(OC)c(Cl)c(-n2nc(N)c(=O)c(C)c2-c2ccc(F)cc2Cl)c1 [Compound 87] | 100% | 98% | 96% | 100% | 96% | 99% | –
17 | CCOC(=O)c1nn(-c2cc(OC)cc(OC)c2)c(-c2ccc(F)cc2F)c(C(=O)OCC)c1=O [Compound 88] | – | – | – | – | – | – | Test A disease control rating ([1]; 250 ppm): 0%; Test B disease control rating ([2]; 250 ppm): 0%; Test C disease control rating ([3]; 250 ppm): 0%; Test D disease control rating ([4]; 250 ppm): 0%; Test E disease control rating ([5]; 250 ppm): 0%; Test F disease control rating ([6]; 250 ppm): 0%
18 | CCOC(=O)c1c(-c2ccc(F)cc2F)n(-c2cc(OC)cc(OC)c2)nc(C(=O)O)c1=O [Compound 89] | – | – | – | – | – | – | Test A disease control rating ([1]; 250 ppm): 0%; Test B disease control rating ([2]; 250 ppm): 0%; Test C disease control rating ([3]; 250 ppm): 0%; Test D disease control rating ([4]; 250 ppm): 0%; Test E disease control rating ([5]; 250 ppm): 0%; Test F disease control rating ([6]; 250 ppm): 0%
19 | COc1cc(OC)cc(-n2nc(CF)c(=O)c(C)c2-c2ccc(F)cc2Cl)c1 [Compound 90] | 99% | 100% | 97% | 100% | 99% | 99% | –
